We go through one compound from patent US11220524B2, “Selective inhibitors of protein arginine methyltransferase 5 (PRMT5)” (PRELUDE THERAPEUTICS, INCORPORATED, priority 2017, dated 2022).

The structures appear in SMILES notation.

The test system of series [1] is Granta-519 mouse xenograft. Description: Tumor growth inhibition and body weight in Granta-519 mouse xenograft model. It is filed as in vivo. As to the method: (§1) In Vivo Pharmacodynamic Effect of Example 36 in Granta-519 Mouse Xenograft Model.
(§2) Granta-519 cells was maintained in DMEM medium supplemented with 10% fetal bovine serum and 2 mM L-Glutamine at 37° C. in an atmosphere of 5% C02 in air. Cells in exponential growth phase were harvested and 1×10^7 cells in 0.1 mL of PBS with Matrigel (1:1) were injected subcutaneously at the right lower flank region of each mouse for tumor development. The treatments were started when the mean tumor size reaches approximately 300-400 mm^3. […] Example 36 or vehicle (0.5% methylcellulose+0.1% Tween 80) were administered orally (BID for Example 36, QD for vehicle) at a dose of 25 mg/kg for 6 days. Body weights and tumor size were measured thrice weekly after randomization. Animals were euthanized 4 hours after last dosing on day 6, and blood and tumor samples were collected for analysis.
Example 92 or vehicle (0.5% Na CMC+0.5% Tween80, suspension) were administered orally (QD for Example 92, QD for vehicle) at a dose of 50 mg/kg for 14 days. Body weights and tumor size were measured every 3 to 4 days after randomization. Animals were euthanized 4 hours after last dosing, and blood and tumor samples were collected for analysis.

A short description of series [2]: In vivo pharmacokinetic study in rat (i.v. and p.o.). The note with it: rat. As to the method:
In Vivo Pharmacokinetic Properties of Example 36.
In a rat (SD, male, non-fasted) non-crossover cassette PK study, Example 36 was dosed at 0.25 mg/kg via i.v. administration (N=3) and 2 mg/kg via oral gauge (p.o.) (N=3) with other 3 compounds.
In Vivo Pharmacokinetic Properties of Example 92.
In a rat (SD, male, non-fasted) non-crossover PK study, Example 92 was dosed at 1 mg/kg (DMA: 20% HPBCD=5:95, solution) via i.v. administration (N=2) and 1 mg/kg (0.5% Na CMC+0.5% Tween80, solution) via oral gauge (p.o.) (N=2).

A further series has as its system Granta-519 cells. Description: Cell proliferation assay on Granta-519 cells (CCK-8, day 10). It is filed as cell-based. The note with it: Homo sapiens, Granta-519, 240 h, Granta cell line, read-out: Prolif. IC50. The protocol: Cell Proliferation Assay to Determine IC50 on Granta-519 Cells
Granta-519 cells were maintained in PRMI 1640 (Corning Cellgro, Catalog #: 10-040-CV) medium supplemented with 10% v/v FBS (GE Healthcare, Catalog #: SH30910.03). Compounds were dissolved in DMSO to make 10 mM stocks and stored at −20° C. Nine-point, 3-fold serial dilutions were made with DMSO with top concentration at 1 mM (working stocks).
On day of experiment, compound working stocks were further diluted at 1:50 with fresh medium in 96 well plate, and 10 μL of diluted drugs were added to a new 96 well plate for proliferation assay. Cells growing at exponential phase were spun down at 1500 rpm for 4 min and resuspend in fresh medium to reach a density of 0.5×10^6 cells/ml. 200 ul of cells were added to 96 well plate containing diluted drugs and incubated for 3 days. DMSO was used a vehicle control.
One day 3, 10 μL of Cell Counting Kit-8 (CCK-8, Jojindo, CK04-13) solution was added to a new 96 well plate. Cells incubated with drugs for 3 days were resuspended by pipetting up and down, and 100 μL of cells were transferred to 96 well plate containing CCK-8 reagent to measure viable cells. Plates were incubated in C02 incubator for 2 hours and OD450 values were measured with a microplate reader (iMark microplate reader, Bio-Rad).
For re-plating, compound working stocks were diluted at 1:50 with fresh medium and 10 μL of diluted drugs were added to anew 96 well plate. Cells from Day 3plate (50 ul) were added to 96 well plate containing fresh drug and additional 150 of fresh medium was added to reach 200 ul volume. Plate was returned to CO2incubator and incubated for 3more days. Viable cells measurement and re-plating were repeated on day 6, and the final viable cells measurement was taken on day 10.
Percentage of viable cells, relative to DMSO vehicle control, were calculated and plotted in Graphpad Prism ([Inhibitor] vs. normalized response-Variable slope) to determine proliferation IC50 values on day 10.

Another series deals with PRMT5/MEP50 complex (Homo sapiens (Human), UniProt O14744). The experiment in a line: Biochemical assay: PRMT5/MEP50 methylation of histone H2A with 3H-SAM, filter plate scintillation. The note with it: biochemical potency; read-out: PRTMT5/MEP50 IC50. In short, it runs like this: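 5 nM PRMT5/MEP50 preincubated with compound 15–20 min at room temperature, with 5 μM histone H2A as substrate; reaction started with 1 μM 3H-SAM and run 60 min at 30 °C. TCA-stopped, filter-captured methylation counted by scintillation; IC50 from 4-parameter Hill fit.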

The subject of series [3] is Symmetric Di-Methyl Arginine (sDMA) in Granta-519 cells. The experiment in a line: Western blot for symmetric di-methyl arginine (sDMA) marks in Granta cells, 3 days treatment. It is filed as cell-based. The conditions noted are these: Homo sapiens, Granta-519, 72 h; Granta cell line, 3 days.
Series [4] deals with sDMA in Granta-519 tumors. Description: In vivo pharmacodynamic effect: sDMA levels in tumor samples of Granta-519 mouse xenograft model. The note with it: 30 mg/kg, separate experiment. As to the method: as §1, §2
To measure sDMA levels in tumor samples, tumors from each mouse were weighted and homogenized in RIPA buffer supplemented with protease inhibitor (cOmplete™, EDTA-free Protease Inhibitor Cocktail, Roche). […] Total protein concentrations of lysate were determined by BCA assay (ThermoFisher Scientific, Catalog #: 23225). Equal amount of total proteins from each tumor were separated on SDS-PAGE gel, and sDMA levels were determined by WB as described previously. […]

PRMT5/MEP50 complex, sequence (O14744 whole entry): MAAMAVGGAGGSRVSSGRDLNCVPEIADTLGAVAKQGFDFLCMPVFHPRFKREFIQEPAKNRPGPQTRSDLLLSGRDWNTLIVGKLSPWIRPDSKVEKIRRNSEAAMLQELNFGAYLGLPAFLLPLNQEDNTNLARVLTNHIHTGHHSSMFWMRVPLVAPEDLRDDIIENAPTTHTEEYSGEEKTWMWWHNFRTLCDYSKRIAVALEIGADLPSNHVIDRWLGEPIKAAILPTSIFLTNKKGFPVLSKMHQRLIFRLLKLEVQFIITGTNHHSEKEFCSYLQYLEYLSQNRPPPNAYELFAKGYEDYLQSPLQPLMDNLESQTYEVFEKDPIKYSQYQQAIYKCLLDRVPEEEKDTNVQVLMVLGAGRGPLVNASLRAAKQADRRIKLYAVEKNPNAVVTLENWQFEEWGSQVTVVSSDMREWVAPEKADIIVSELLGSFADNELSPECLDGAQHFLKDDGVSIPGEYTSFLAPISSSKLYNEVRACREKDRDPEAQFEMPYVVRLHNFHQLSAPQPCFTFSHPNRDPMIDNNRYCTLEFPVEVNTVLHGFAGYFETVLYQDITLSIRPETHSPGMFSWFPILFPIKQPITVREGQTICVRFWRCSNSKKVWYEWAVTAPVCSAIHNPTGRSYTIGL
PRMT5/MEP50 complex, sequence (Q9BQA1 whole entry partner): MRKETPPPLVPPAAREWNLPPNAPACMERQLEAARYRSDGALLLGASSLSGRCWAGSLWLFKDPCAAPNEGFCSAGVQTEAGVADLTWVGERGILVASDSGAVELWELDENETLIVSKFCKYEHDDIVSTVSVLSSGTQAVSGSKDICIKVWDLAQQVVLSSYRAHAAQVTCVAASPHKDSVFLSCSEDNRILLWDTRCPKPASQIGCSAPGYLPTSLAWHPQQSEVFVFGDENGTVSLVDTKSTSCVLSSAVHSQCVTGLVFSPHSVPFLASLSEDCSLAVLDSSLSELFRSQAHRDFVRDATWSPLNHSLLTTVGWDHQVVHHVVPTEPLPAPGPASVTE

In the case of `C[C@@](O)(c1ccc(Cl)c(Cl)c1)[C@H]1O[C@@H](n2cnc3c(N)ncnc32)[C@H](O)[C@@H]1O` [Example 1-C, (2R,3R,4S,5S)-2-(6-amino-9H-purin-9-yl)-5-((R)-1-(3,4-dichlorophenyl)-1-hydroxyethyl)tetrahydrofuran-3,4-diol], the body weight gain in series [1] (30 mg/kg, separate experiment) turned out to be 6%. The compound also registered a tumor growth inhibition in series [1] (30 mg/kg, separate experiment, N=5) of 61%. For the same compound, the “metabolite detection in blood and tumor samples” value in series [1] (mouse xenograft, after Example 92 at 50 mg/kg QD for 14 days) was “detected in all blood and tumor samples”. Further, the “metabolite detection in blood samples” value in series [2] (after dosing of Example 92 at 1 mg/kg) is reported as “detected in blood samples”. The AUC0-inf of metabolite in series [2] (metabolite after dosing of Example 92 at 1 mg/kg) was found to be 284 ng·kg·h/mL/mg. Moreover, the IC50 in the series on Granta-519 cells worked out at 44 nM; at PRMT5/MEP50 complex, 3.6 nM; in series [3] it was 8.2 nM. In series [4], the “sDMA in tumor samples” value is recorded as “no detectable amount of sDMA”.
